The values below come from patent US7932283B2, “Fungicide N-cyclopropyl-sulfonylamide derivatives” (Bayer Cropscience AG, priority 2006, dated 2011).

In general, chromatographic logP refers to a lipophilicity value derived from retention on a column. A low value points to lower lipophilicity.

The first data set in a line: logP by HPLC on reversed-phase column (C 18), EEC Directive 79/B31 Annex V.A8, methods A and B. It counts as physicochemical. The conditions noted are these: reversed-phase HPLC column (C 18), HPLC reversed-phase C 18, method A: 43° C., 0.1% aqueous phosphoric acid, acetonitrile, linear gradient 10% to 90% acetonitrile. The method, then:
Calibration was carried out using unbranched alkan-2-ones (having 3 to 16 carbon atoms) with known logP values (determination of the logP values by the retention times using linear interpolation between two successive alkanones).
On to `Cc1nn(C)c(F)c1C(=O)N(C1CC1)S(=O)(=O)c1ccccc1` [Compound 181], for which the chromatographic logP worked out at 2.28.
Still for that read-out and setting: under `Cc1nc(C(=O)N(C2CC2)S(=O)(=O)c2ccc(O)c(C(F)(F)F)c2)cs1` [Compound 69] stands 3.63; under `Cc1nn(C)c(O)c1C(=O)N(C1CC1)S(=O)(=O)c1ccccc1O` [Compound 199], 2.58; under `Cc1nn(C)c(F)c1C(=O)N(C1CC1)S(=O)(=O)c1ccc(O)cc1` [Compound 190], 2.83.
`Cc1nc(C(=O)N(C2CC2)S(=O)(=O)c2ccc(O)cc2O)cs1` [Compound 71]: the chromatographic logP was 3.03.
Same read-out and setting: under `CCOC(=O)c1[nH]c(C)c(C(=O)N(C2CC2)S(=O)(=O)c2ccc(O)c(C(F)(F)F)c2)c1C` [Compound 31] stands 4.08; under `Cc1nn(C)c(F)c1C(=O)N(C1CC1)S(=O)(=O)c1ccccc1-c1ccccc1` [Compound 206], 2.96.
Compound `Cc1ccsc1C(=O)N(C1CC1)S(=O)(=O)c1ccccc1O` [Compound 14] registered a chromatographic logP of 3.12.
The same measure, in the same setting: under `Cc1nn(C)c(F)c1C(=O)N(C1CC1)S(=O)(=O)c1ccccc1C#N` [Compound 216] stands 2.07; under `Cc1ncc(C(=O)N(C2CC2)S(=O)(=O)c2cccc(O)c2)s1` [Compound 60], 2.8.

Staying with this data set, now noted: reversed-phase HPLC column (C 18), HPLC reversed-phase C 18, method B: 40° C., 0.1% aqueous formic acid and acetonitrile, linear gradient 10% to 90% acetonitrile.
Turning to `Cn1nc(C2CC2)c(C(=O)N(C2CC2)S(=O)(=O)c2ccc(O)c(O)c2O)c1O` [Compound 223], the chromatographic logP turned out to be 4.2.
In turn, `CCc1nn(C)c(F)c1C(=O)N(C1CC1)S(=O)(=O)c1ccc(O)c(O)c1` [Compound 378] showed a chromatographic logP of 3.8.
Still for that read-out and setting: under `CCCOc1nn(C)cc1C(=O)N(C1CC1)S(=O)(=O)c1ccc(Oc2ccc(C(F)(F)F)cc2)cc1Br` [Compound 298] stands 4.6; under `COc1cscc1C(=O)N(C1CC1)S(=O)(=O)c1ccc(O)c(O)c1O` [Compound 27], 3.9.
On the same count and under the same terms, under `Cn1nc(C(F)(F)F)c(C(=O)N(C2CC2)S(=O)(=O)c2ccccc2I)c1F` [Compound 369] stands 3; under `CCCOc1nn(C)cc1C(=O)N(C1CC1)S(=O)(=O)c1ccc(Oc2ccc(-n3cncn3)cc2)cc1Br` [Compound 286], 3.
The same measure, in the same setting: under `CCOC(=O)c1[nH]c(C)c(C(=O)N(C2CC2)S(=O)(=O)c2cccc(O)c2O)c1C` [Compound 34] stands 3.5; under `Cc1cc(C(=O)N(C2CC2)S(=O)(=O)c2cccc(O)c2O)c(C)o1` [Compound 5], 3.8.
Take `CCCOc1nn(C)cc1C(=O)N(C1CC1)S(=O)(=O)c1ccc(Oc2ccc(O)c(C(F)(F)F)c2)cc1Br` [Compound 302]: the chromatographic logP worked out at 4.9.
On the same count and under the same terms, under `Cn1cc(C(=O)N(C2CC2)S(=O)(=O)c2cccc(O)c2O)c(C(F)(F)F)c1` [Compound 36] stands 3.3; under `Cn1nc(C(F)(F)F)c(C(=O)N(C2CC2)S(=O)(=O)c2ccc(Oc3cccc(C#N)c3Cl)cc2)c1F` [Compound 371], 3.7; under `COc1cscc1C(=O)N(C1CC1)S(=O)(=O)c1ccc(Oc2ccccc2)cc1` [Compound 26], 3.9.
Turning to `Cc1cc(C(=O)N(C2CC2)S(=O)(=O)c2ccc(O)c(O)c2O)c(C)o1` [Compound 6], the chromatographic logP turned out to be 4.4.
Compound `CCCOc1nn(C)cc1C(=O)N(C1CC1)S(=O)(=O)c1ccc(Oc2ccc(F)c(O)c2)cc1Br` [Compound 294] gave a chromatographic logP of 4.5.
In turn, `CCCOc1nn(C)cc1C(=O)N(C1CC1)S(=O)(=O)c1ccc(Oc2ccc(Cl)c(Cl)c2)cc1Br` [Compound 303] gave a chromatographic logP of 4.9.
Same read-out and setting: under `COc1nn(C)c(O)c1C(=O)N(C1CC1)S(=O)(=O)c1ccc(Oc2ccc(Br)cc2)cc1` [Compound 284] stands 4.3; under `CC(C)c1nn(C)c(F)c1C(=O)N(C1CC1)S(=O)(=O)c1ccc(O)cc1O` [Compound 96], 3.8; under `Cn1nc(C(F)(F)F)c(C(=O)N(C2CC2)S(=O)(=O)c2ccccc2C(F)(F)F)c1F` [Compound 364], 3.1.
`CCCOc1nn(C)cc1C(=O)N(C1CC1)S(=O)(=O)c1ccc(Oc2cccc(N(C)C)c2)cc1Br` [Compound 292] displayed a chromatographic logP of 4.4.
Consider `CCCOc1nn(C)cc1C(=O)N(C1CC1)S(=O)(=O)c1ccc(Oc2ccc(C)cc2)cc1Br` [Compound 293], for which the chromatographic logP came out at 4.5. The chromatographic logP values of the last two compounds are within 0.2 log units of each other.

The same data set, now with this note: reversed-phase HPLC column (C 18), LogP method A: HPLC reversed-phase C 18, 43° C., 0.1% aqueous phosphoric acid / acetonitrile, linear gradient 10% to 90% acetonitrile.
In the case of `Cc1nn(C)c(Oc2cccc(O)c2)c1C(=O)N(C1CC1)S(=O)(=O)c1cccc(O)c1` [Compound 399], the chromatographic logP is 3.94.
Turning to `Cc1nn(C)c(O)c1C(=O)N(C1CC1)S(=O)(=O)c1ccc(O)c(C(F)(F)F)c1` [Compound 406], the chromatographic logP is 3.76.
Compound `Cc1c(C(=O)N(C2CC2)S(=O)(=O)c2ccc(C(C)(C)C)cc2)sc(=O)n1Cc1ccccc1` [Compound 628] yielded a chromatographic logP of 3.01.
`Cc1nn(C)c(C)c1C(=O)N(C1CC1)S(=O)(=O)c1ccc(O)c(O)c1` [Compound 412]: the chromatographic logP is 3.21.
As for `O=C(c1cccnc1)N(C1CC1)S(=O)(=O)c1ccc(O)c(O)c1` [Compound 639], the chromatographic logP came out at 2.91.
Still for that read-out and setting: under `Cc1c(C(=O)N(C2CC2)S(=O)(=O)c2cccc(O)c2)sc(=O)n1Cc1ccccc1` [Compound 613] stands 2.01; under `COCCn1c(C)c(C(=O)N(C2CC2)S(=O)(=O)c2cccc(O)c2)sc1=O` [Compound 609], 2.01; under `Cc1noc(C)c1C(=O)N(C1CC1)S(=O)(=O)c1ccc(C(C)(C)C)cc1` [Compound 593], 4.03.
Consider `Cc1n[nH]c(C)c1C(=O)N(C1CC1)S(=O)(=O)c1ccc(C(C)(C)C)cc1` [Compound 410], for which the chromatographic logP worked out at 3.04.
Compound `O=C(C1=C(C(F)(F)F)OCCS1)N(C1CC1)S(=O)(=O)c1ccccc1O` [Compound 653] displayed a chromatographic logP of 3.2.

Still in this data set, the particulars now being: reversed-phase HPLC column (C 18), LogP method B: HPLC reversed-phase C 18, 40° C., 0.1% aqueous formic acid / acetonitrile, linear gradient 10% to 90% acetonitrile.
Compound `Cc1nocc1C(=O)N(C1CC1)S(=O)(=O)c1ccc(Oc2ccccc2)cc1` [Compound 601] displayed a chromatographic logP of 3.7.
`CCOc1nn(C)cc1C(=O)N(C1CC1)S(=O)(=O)c1ccc(Oc2ccc(OC)cc2)cc1O` [Compound 529] returned a chromatographic logP of 3.5.
In turn, `COc1nn(C)cc1C(=O)N(C1CC1)S(=O)(=O)c1ccc(Oc2cccc(C(F)(F)F)c2F)cc1Br` [Compound 471] registered a chromatographic logP of 3.8.
Same read-out and setting: under `COc1nn(C)cc1C(=O)N(C1CC1)S(=O)(=O)c1ccc(Oc2ccc(O)c(O)c2)cc1Br` [Compound 478] stands 4.2.
For the compound `CCOc1nn(C)cc1C(=O)N(C1CC1)S(=O)(=O)c1ccc(OC2=CC(N(C)C)=CCC2)cc1O` [Compound 532], the chromatographic logP amounted to 3.8.
On the same count and under the same terms, under `Cc1oncc1C(=O)N(C1CC1)S(=O)(=O)c1cccc(O)c1O` [Compound 603] stands 2.2; under `Cn1ncc(I)c1C(=O)N(C1CC1)S(=O)(=O)c1cccc(O)c1O` [Compound 662], 2.8; under `CCOc1nn(C)cc1C(=O)N(C1CC1)S(=O)(=O)c1ccc(Oc2ccc(C)nc2)cc1Br` [Compound 526], 2.3.
Take `Cc1nocc1C(=O)N(C1CC1)S(=O)(=O)c1cccc(O)c1O` [Compound 599]: the chromatographic logP worked out at 3.
Consider `COc1nn(C)cc1C(=O)N(C1CC1)S(=O)(=O)c1ccc(Oc2cccc(N(C)C)c2)cc1Br` [Compound 466], for which the chromatographic logP was determined as 3.5.
